Experiments:
Cbl-b [1] = molecular target: T1, Cbl-b (Homo sapiens, UniProt Q13191); experiment: Cbl-b Degradation Method B (Nano-Glo HiBiT lytic detection); assay type: cell-based; conditions: Cbl-b-HiBit KI Jurkat Cells, incubated at least 6-24 hours; for DC50: half maximal degradation, read-out: Cbl-b Degredation Method B IC50; for Dmax / Cbl-b Degredation Method B Dmax (%): maximum degradation observed; for Dmax: read-out: Cbl-b Degredation Method B Dmax (%)
T1 construct: Cbl-b-HiBit KI Jurkat Cells were purchased from Promega; host or cells: Cbl-b-HiBiT knock-in Jurkat cells
T1 sequence (Q13191 whole entry): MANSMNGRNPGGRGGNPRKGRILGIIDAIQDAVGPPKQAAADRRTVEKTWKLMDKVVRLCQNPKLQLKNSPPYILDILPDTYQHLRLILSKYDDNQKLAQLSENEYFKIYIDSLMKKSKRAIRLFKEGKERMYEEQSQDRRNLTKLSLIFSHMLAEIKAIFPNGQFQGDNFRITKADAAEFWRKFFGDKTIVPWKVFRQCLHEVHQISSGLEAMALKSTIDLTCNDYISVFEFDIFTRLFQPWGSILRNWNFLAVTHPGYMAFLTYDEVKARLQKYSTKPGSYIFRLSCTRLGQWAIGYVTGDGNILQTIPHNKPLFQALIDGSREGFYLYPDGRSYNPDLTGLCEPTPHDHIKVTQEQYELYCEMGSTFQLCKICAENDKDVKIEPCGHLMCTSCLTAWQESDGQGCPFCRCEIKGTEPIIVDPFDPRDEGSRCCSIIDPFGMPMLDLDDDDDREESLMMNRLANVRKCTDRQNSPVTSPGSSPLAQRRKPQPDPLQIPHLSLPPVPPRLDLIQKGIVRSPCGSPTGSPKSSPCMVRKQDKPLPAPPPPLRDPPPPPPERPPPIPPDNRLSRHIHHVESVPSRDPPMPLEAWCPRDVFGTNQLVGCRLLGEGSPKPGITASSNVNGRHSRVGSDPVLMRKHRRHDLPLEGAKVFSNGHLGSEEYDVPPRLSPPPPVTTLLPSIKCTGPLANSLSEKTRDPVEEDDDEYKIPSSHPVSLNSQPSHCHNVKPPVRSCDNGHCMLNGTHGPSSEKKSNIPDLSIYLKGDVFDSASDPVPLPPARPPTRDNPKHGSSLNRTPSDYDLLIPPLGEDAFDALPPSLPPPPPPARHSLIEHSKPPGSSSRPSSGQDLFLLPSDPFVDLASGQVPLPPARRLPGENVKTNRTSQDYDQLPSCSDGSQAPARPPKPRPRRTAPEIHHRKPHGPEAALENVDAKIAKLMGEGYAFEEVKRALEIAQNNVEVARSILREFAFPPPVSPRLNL
In short: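 An 11-point, 3-fold compound dilution was applied for 6-24 hours to Jurkat cells carrying HiBiT-tagged endogenous Cbl-b. Lytic HiBiT luminescence quantified residual protein. Outputs are DC50 and Dmax relative to DMSO control.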

Cbl-b [2] = molecular target: T1, Cbl-b; experiment: Cbl-b Degradation Method A (FACS, anti-Cbl-b antibody staining); assay type: cell-based; conditions: Cbl-b-HiBit KI Jurkat Cells, incubated at least 20 hours; for DC50: half maximal degradation, read-out: Cbl-b Degredation Method A IC50; for Dmax: Jurkat, read-out: Cbl-b Degredation Method A Dmax (%); for Dmax / Cbl-b Degredation Method A Dmax (%): maximum degradation observed
Procedure: Cbl-b Degradation Method A
Cbl-b-HiBit KI Jurkat Cells were purchased from Promega, and cell media consisted of RPMI 1640 with 10% FBS and 1% pen/strep. The cells were counted, measured for viability, and 100 μL of the cell solution was into 96 well flat bottom plates at a ratio of 290,000 cells per 100 μL. Compounds were dissolved in DMSO to make a 10 mM stock solution, which was diluted with cell media. 100 μL of the diluted compound mixture was added to the wells. The plate was incubated for at least 20 hours at 37° C. and 5% CO2. After incubation, the plate was shaken at 700-750 RMP for 15-30 minutes to ensure cells were removed from the wells. The wells were transferred to a 96-well v-bottom plate and spun for 2200 RPM for 3 minutes. The supernatant was removed, cells re-suspended in 100 μL of the fixative, and subsequently incubated at room temperature for 15 minutes. Afterwards, 150 μL of DPBS was added to each well, and the cells were centrifuged at 2500 RPM for 3 minutes. The supernatant was removed and the plate was chilled on ice for 2-3 minutes. While still on the ice, 100 μL of Perm III was added to each well, the wells mixed, and subsequently left on the ice for another 15 minutes. Afterwards, the plate was removed from the ice, 150 μL of DBPS was added to each well, and the cells centrifuged at 2700 RPM for 3 minutes. The supernatant was removed, and an additional 200 μL of was DPBS was added to each well, followed by centrifuging at 2700 RPM for 3 minutes, after which the supernatant was removed. The anti-Cbl-b antibody was diluted 1:200 in 1× Perm Wash buffer and 50 μL of the antibody mixture was added to each well and mixed. After addition, the plate was incubated for 35-45 minutes at room temperature. After incubation, 200 μL of DPBS was added to each wells, and the plate centrifuged at 2700 RPM for 3 minutes, followed by the removal of the supernatant. The washing step was repeated by adding 200 μL of DPBS to each wells followed by centrifuge at 2700 RPM for 3 minutes and removal of the supernatant. The a-Rabbit-AF488 antibody was diluted 1:1000 in Perm Wash buffer, 50 μL of the dilution added to each well, and mixed. After mixing, the plate was incubated for 30 minutes at room temperature in the dark. Subsequently, the supernatant was removed, and 200 μL of DBPS added to the cells, which were then centrifuged at 2900 RPM for 4 minutes. The supernatant was removed, and an additional 95 μL of DBPS was added to the wells and mixed. The cells were then transferred to a round bottom polypropylene plate and analyzed using FACS with the parameters below:
The concentration of an exemplary compound that leads to half maximal degradation (DC50) as well as the maximum degradation observed (Dmax, conventionally expressed as a percentage of control) is shown below in Table 2.

Structure (SMILES)	DC50 (Cbl-b [1])	Dmax (Cbl-b [1])	DC50 (Cbl-b [2])	Dmax (Cbl-b [2])	Cbl-b Degredation Method B Dmax (%) (Cbl-b [1])	Cbl-b Degredation Method A Dmax (%) (Cbl-b [2])
Cn1cnnc1CC1(c2cccc(N3Cc4c(cc(CN5CCC(CN6CCC(C7CCN(c8ccc9c(c8)C(=O)N(C8CCC(=O)NC8=O)C9=O)CC7)CC6)CC5)cc4C(F)(F)F)C3=O)c2)COC1 (stereo not drawn) [Example 77, 2-(2,6-dioxopiperidin-3-yl)-5-{1′-[(1-{[2-(3-{3-[(4-methyl-4H-1,2,4-triazol-3-yl)methyl]oxetan-3-yl}phenyl)-3-oxo-7-(trifluoromethyl)-2,3-dihydro-1H-isoindol-5-yl]methyl}piperidin-4-yl)methyl]-[4,4′-bipiperidin]-1-yl}-2,3-dihydro-1H-isoindole-1,3-dione]	> 500 nM		> 500 nM			
CC1CC(N2CCC(COCCOc3ccc4c(c3)C(=O)N(C3CCC(=O)NC3=O)C4=O)CC2)CN(Cc2cc3c(c(C(F)(F)F)c2)CN(c2cccc(C4(Cc5nncn5C)COC4)c2)C3=O)C1 (stereo not drawn) [Example 102, 2-(2,6-dioxopiperidin-3-yl)-5-{2-[(5′-methyl-1′-{[2-(3-{3-[(4-methyl-4H-1,2,4-triazol-3-yl)methyl]oxetan-3-yl}phenyl)-3-oxo-7-(trifluoromethyl)-2,3-dihydro-1H-isoindol-5-yl]methyl}-[1,3′-bipiperidin]-4-yl)methoxy]ethoxy}-2,3-dihydro-1H-isoindole-1,3-dione]	> 500 nM		> 500 nM			
Cn1cnnc1CC1(c2cccc(N3Cc4c(cc(CN5CCCC(N6CC7(CCN(c8ccc9c(c8)C(=O)N(C8CCC(=O)NC8=O)C9=O)CC7)C6)C5)cc4C(F)(F)F)C3=O)c2)COC1 (stereo not drawn) [Example 108, 2-(2,6-dioxopiperidin-3-yl)-5-[2-(1-{[2-(3-{3-[(4-methyl-4H-1,2,4-triazol-3-yl)methyl]oxetan-3-yl}phenyl)-3-oxo-7-(trifluoromethyl)-2,3-dihydro-1H-isoindol-5-yl]methyl}piperidin-3-yl)-2,7-diazaspiro[3.5]nonan-7-yl]-2,3-dihydro-1H-isoindole-1,3-dione]	5 to 50 nM	35 to 70%	5 to 50 nM	< 35%		
Cn1cnnc1CC1(c2cccc(N3Cc4c(cc(CN5CCC(COCCOCCOc6ccc7c(c6)C(=O)N(C6CCC(=O)NC6=O)C7=O)CC5)cc4C(F)(F)F)C3=O)c2)COC1 (stereo not drawn) [Example 89, 2-(2,6-dioxopiperidin-3-yl)-5-(2-{2-[(1-{[2-(3-{3-[(4-methyl-4H-1,2,4-triazol-3-yl)methyl]oxetan-3-yl}phenyl)-3-oxo-7-(trifluoromethyl)-2,3-dihydro-1H-isoindol-5-yl]methyl}piperidin-4-yl)methoxy]ethoxy}ethoxy)-2,3-dihydro-1H-isoindole-1,3-dione]	> 500 nM		> 500 nM			
COc1c(N2CCC(O[C@H]3CC[C@@H](CN4CCN(C[C@H]5CCCN(Cc6cc7c(c(C(F)(F)F)c6)CN(c6cccc(C8(Cc9nncn9C)COC8)c6)C7=O)C5)CC4)CC3)CC2)ccc2c1CN(C1CCC(=O)NC1=O)C2=O (stereo partly drawn) [Example 163, 3-[4-methoxy-1-oxo-5-(4-{[(1r,4r)-4-[(4-{[(3S)-1-{[2-(3-{3-[(4-methyl-4H-1,2,4-triazol-3-yl)methyl]oxetan-3-yl}phenyl)-3-oxo-7-(trifluoromethyl)-2,3-dihydro-1H-isoindol-5-yl]methyl}piperidin-3-yl]methyl}piperazin-1-yl)methyl]cyclohexyl]oxy}piperidin-1-yl)-2,3-dihydro-1H-isoindol-2-yl]piperidine-2,6-dione]	< 5 nM	> 70%	< 5 nM	> 70%		
Cn1cnnc1CC1(c2cccc(N3Cc4c(cc(CN5CCN(C6CC7(C6)CN(c6ccc8c(c6)C(=O)N(C6CCC(=O)NC6=O)C8=O)C7)CC5)cc4C(F)(F)F)C3=O)c2)COC1 (stereo not drawn) [Example 107, 2-(2,6-dioxopiperidin-3-yl)-5-[6-(4-{[2-(3-{3-[(4-methyl-4H-1,2,4-triazol-3-yl)methyl]oxetan-3-yl}phenyl)-3-oxo-7-(trifluoromethyl)-2,3-dihydro-1H-isoindol-5-yl]methyl}piperazin-1-yl)-2-azaspiro[3.3]heptan-2-yl]-2,3-dihydro-1H-isoindole-1,3-dione]	> 500 nM		5 to 50 nM	< 35%		
CC(c1cc2c(c(C(F)(F)F)c1)CN(c1cccc(C3(Cc4nncn4C)COC3)c1)C2=O)N1CCN(C[C@H]2CC[C@H](OC3CCN(c4ccc5c(c4F)CN(C4CCC(=O)NC4=O)C5=O)CC3)CC2)CC1 (single isomer, unassigned) [Example 9, 3-[4-fluoro-1-oxo-5-(4-{[(1r, 4r)-4-[(4-{1-[2-(3-{3-[(4-methyl-4H-1,2,4-triazol-3-yl)methyl]oxetan-3-yl}phenyl)-3-oxo-7-(trifluoromethyl)-2,3-dihydro-1H-isoindol-5-yl]ethyl}piperazin-1-yl)methyl]cyclohexyl]oxy}piperidin-1-yl)-2,3-dihydro-1H-isoindol-2-yl]piperidine-2,6-dione]	< 5 nM		< 5 nM		B (35 < B < 70)	B (35 < B < 70)

Next, values leading:

DC50 (Cbl-b [1])	Dmax (Cbl-b [1])	DC50 (Cbl-b [2])	Dmax (Cbl-b [2])	Cbl-b Degredation Method B Dmax (%) (Cbl-b [1])	Cbl-b Degredation Method A Dmax (%) (Cbl-b [2])	Structure (SMILES)
< 5 nM	35 to 70%	5 to 50 nM	35 to 70%			CC1CN(C[C@H]2CC[C@H](OC3CCN(c4ccc5c(n4)C(C)N(C4CCC(=O)NC4=O)C5=O)CC3)CC2)CCN1Cc1cc2c(c(C(F)(F)F)c1)CN(c1cccc(C3(Cc4nncn4C)CCC3)c1)C2=O (stereo partly drawn) [Example 209, 3-[7-methyl-5-oxo-2-(4-{[(1r,4r)-4-[(3-methyl-4-{[2-(3-{1-[(4-methyl-4H-1,2,4-triazol-3-yl)methyl]cyclobutyl}phenyl)-3-oxo-7-(trifluoromethyl)-2,3-dihydro-1H-isoindol-5-yl]methyl}piperazin-1-yl)methyl]cyclohexyl]oxy}piperidin-1-yl)-5H,6H,7H-pyrrolo[3,4-b]pyridin-6-yl]piperidine-2,6-dione]
< 5 nM		50 to 500 nM		C (C ≤ 35)	B (35 < B < 70)	C[C@@H]1c2nc(N3CCC(O[C@H]4CC[C@H](CN5CCN(Cc6cc7c(c(C(F)(F)F)c6)CN(c6cccc(C8(Cc9nncn9C)CC(C#N)C8)c6)C7=O)C(C)(C)C5)CC4)CC3)ccc2C(=O)N1C1CCC(=O)NC1=O (single isomer, unassigned) [Example 307, (1r***,3r***)-3-(3-{6-[(2,2-dimethyl-4-{[(1r**,4r**)-4-({1-[(7R*)-6-(2,6-dioxopiperidin-3-yl)-7-methyl-5-oxo-5H,6H,7H-pyrrolo[3,4-b]pyridin-2-yl]piperidin-4-yl}oxy)cyclohexyl]methyl}piperazin-1-yl)methyl]-1-oxo-4-(trifluoromethyl)-2,3-dihydro-1H-isoindol-2-yl}phenyl)-3-[(4-methyl-4H-1,2,4-triazol-3-yl)methyl]cyclobutane-1-carbonitrile]
< 5 nM		50 to 500 nM	35 to 70%	C (C ≤ 35)		CC(C)n1c(=O)n(C2CCC(=O)NC2=O)c2cccc(N3CCC(CN4CCC5(CC4)CN(c4cc6c(c(C(F)(F)F)c4)CN(c4cccc([C@]7(Cc8nncn8C)C[C@@H](C#N)C7)c4)C6=O)C5)CC3)c21 (stereo partly drawn) [Example 284, (1r,3r)-3-(3-{6-[7-({1-[1-(2,6-dioxopiperidin-3-yl)-2-oxo-3-(propan-2-yl)-2,3-dihydro-1H-1,3-benzodiazol-4-yl]piperidin-4-yl}methyl)-2,7-diazaspiro[3.5]nonan-2-yl]-1-oxo-4-(trifluoromethyl)-2,3-dihydro-1H-isoindol-2-yl}phenyl)-3-[(4-methyl-4H-1,2,4-triazol-3-yl)methyl]cyclobutane-1-carbonitrile]
